Target: SMYD3 (Homo sapiens (Human), UniProt Q9H7B4)
Experiment: SMYD3 biochemical assay (SMYD3 enzyme assay on MEKK2 protein substrate, scintillation proximity assay)
Details: 3H-SAM, SPA, IC50 values are an average of n = 1 to n = 50, read-out: SMYD3 Biochem IC50
Text: S-adenosylmethionine (SAM), S-adenosylhomocysteine (SAH), Tris, Tween20, dimethylsulfoxide (DMSO), bovine skin gelatin (BSG), and Tris(2-carboxyethyl)phosphine hydrochloride solution (TCEP) were purchased from Sigma-Aldrich at the highest level of purity possible. ^3H-SAM was purchase from American Radiolabeled Chemicals with a specific activity of 80 Ci/mmol. 384-well opaque white OptiPlates and SPA beads (Perkin Elmer, catalog # RPNQ0013) were purchased from PerkinElmer.
N-terminally GST-tagged MEKK2 (MAP3K2) protein corresponding to reference sequence AAF63496.3 was purchased from Life Technologies (catalog # PV4010). […] Protein identity was confirmed by MS/MS analysis after proteolytic digestion. The protein sequence used was:
Full-length human SMYD3 isoform 1 (BAB86333) was inserted into a modified pET21b plasmid containing a His6 tag and TEV and SUMO cleavage sites. Because two common variants of SMYD3 exist in the population, site directed mutagenesis was subsequently performed to change amino acid 13 from an asparagine to a lysine, resulting in plasmid pEPZ533.
E. coli (BL21 codonplus RIL strain, Stratagene) were transformed with plasmid pEPZ553 by mixing competent cells and plasmid DNA and incubating on ice for 30minutes followed by heat shock at 42° C. for 1 minute and cooling on ice for 2 minutes. Transformed cells were grown and selected on LB agar with 100 μg/mL ampicillin and 17 μg/mL chloramphenicol at 37° C. overnight. A single clone was used to inoculate 200 mL of LB medium with 100 μg/mL ampicillin and 17 μg/mL chloramphenicol and incubated at 37° C. on an orbital shaker at 180 rpm. Once in log growth, the culture was diluted 1:100 into 2 L of LB medium and grown until OD600 was about 0.3 after which the culture was incubated at 15° C. and 160 rpm. Once OD600 reached about 0.4, IPTG was added to a final concentration of 0.1 mM and the cells were grown overnight at 15° C. and 160 rpm. Cells were harvested by centrifugation at 8000 rpm, for 4 minutes at 4° C. and stored at −80° C. for purification.
The column was washed with Buffer B (Buffer A plus 20 mM imidazole) and His-tagged SMYD3 was eluted with Buffer C (Buffer A plus 300 mM imidazole). The His tag, TEV and SUMO cleavage sites were removed generating native SMYD3 by addition of ULP1 protein at a ratio of 1:200 (ULP1:SMYD3). Imidazole was removed by dialysis overnight in Buffer A. The dialyzed solution was applied to a second Nickel column and the native SMYD3 protein was collected from the column flow-through. The flow-through was dialyzed in Buffer D (25 mM Tris, 5% glycerol, 5 mM β-mercaptoethanol, 50 mM NaCl, pH7.8) and ULP1 was removed using a Q sepharose fast flow column.
General Procedure for SMYD3 Enzyme Assays on MEKK2 Protein Substrate
The assays were all performed in a buffer consisting of 25 mM Tris-Cl pH 8.0, 1 mM TCEP, 0.005% BSG, and 0.005% Tween 20, prepared on the day of use. Compounds in 100% DMSO (1 ul) were spotted into a 384-well white opaque OptiPlate using a Bravo automated liquid handling platform outfitted with a 384-channel head (Agilent Technologies). DMSO (1 ul) was added to Columns 11, 12, 23, 24, rows A-H for the maximum signal control and 1 ul of SAH, a known product and inhibitor of SMYD3, was added to columns 11, 12, 23, 24, rows I-P for the minimum signal control. A cocktail (40 ul) containing the SMYD3 enzyme was added by Multidrop Combi (Thermo-Fisher). The compounds were allowed to incubate with SMYD3 for 30 min at room temperature, then a cocktail (10 ul) containing SAM and MEKK2 was added to initiate the reaction (final volume=51 ul).

SMYD3, sequence (Q9H7B4 whole entry): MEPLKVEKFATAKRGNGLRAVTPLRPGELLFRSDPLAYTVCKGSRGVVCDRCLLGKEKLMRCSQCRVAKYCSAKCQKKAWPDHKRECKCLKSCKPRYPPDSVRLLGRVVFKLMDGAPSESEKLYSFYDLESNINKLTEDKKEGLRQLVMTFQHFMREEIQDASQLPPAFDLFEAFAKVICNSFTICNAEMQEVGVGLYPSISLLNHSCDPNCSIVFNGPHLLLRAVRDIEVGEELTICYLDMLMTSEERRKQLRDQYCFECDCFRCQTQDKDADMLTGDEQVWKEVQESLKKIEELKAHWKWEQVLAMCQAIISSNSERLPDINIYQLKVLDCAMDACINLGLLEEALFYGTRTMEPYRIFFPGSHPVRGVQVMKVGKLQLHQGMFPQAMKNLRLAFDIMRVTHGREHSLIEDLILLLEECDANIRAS

SMILES | IC50 [nM]
CCc1cc(C(=O)N[C@H]2CC[C@H](NC(=O)C[C@H](C)N)C[C@H]2CC)no1 (mixture of isomers) [compound 7, Mixture of N-((1S,2R,4S)-4-((S)-3-aminobutanamido)-2-ethylcyclohexyl)-5-ethylisoxazole-3-carboxamide and N-((1R,2S,4R)-4-((S)-3-aminobutanamido)-2-ethylcyclohexyl)-5-ethylisoxazole-3-carboxamide; (1S,2R,4S) isomer depicted] | 170
NC1CCC1C(=O)N[C@H]1CC[C@H](NC(=O)c2cc(C3CC3)on2)CC1 (stereo partly shown) [Cpd. No. 3, N-((1r,4r)-4-(2-amino-cyclobutane-1-carboxamido)cyclo-hexyl)-5-cyclopropylisoxazole-3-carboxamide] | 545
NCCCS(=O)(=O)N[C@H]1CC[C@H](NC(=O)c2cc(C3CC3)on2)CC1 [Cpd. No. 34, N-((1r,4r)-4-((3-amino-propyl)sulfonamido)cyclohexyl)-5-cyclopropylisoxazole-3-carboxamide] | 1340
CC(N)CC(=O)N[C@H]1CC[C@H](NC(=O)c2cc(C3CC3)on2)CC1 (stereo partly shown) [compound 1, N-((1r,4r)-4-(3-aminobutanamido)cyclohexyl)-5-cyclopropylisoxazole-3-carboxamide] | 466
CCc1cc(C(=O)N[C@H]2CC[C@H](N)C[C@H]2CC)no1 [compound 2, N-((1S,2R,4S)-4-amino-2-ethylcyclohexyl)-5-ethylisoxazole-3-carboxamide] | 2440
NCCC(=O)N[C@H]1CC[C@H](NC(=O)c2cc(C3CC3)on2)CC1 [compound 4, N-((1r,4r)-4-(3-aminopropanamido)cyclohexyl)-5-cyclopropylisoxazole-3-carboxamide] | 475
CC(CN)C(=O)N[C@H]1CC[C@H](NC(=O)c2cc(C3CC3)on2)CC1 (stereo partly shown) [compound 8, N-((1r,4r)-4-(3-amino-2-methylpropanamido)cyclohexyl)-5-cyclopropylisoxazole-3-carboxamide] | 654
NCCC(=O)N(CCO)[C@H]1CC[C@H](NC(=O)c2cc(C3CC3)on2)CC1 [compound 9, N-((1r,4r)-4-(3-amino-N-(2-hydroxyethyl)propanamido)cyclohexyl)-5-cyclo-propylisoxazole-3-carboxamide] | 2280
CN1CCN(CCC(=O)N[C@H]2CC[C@H](NC(=O)c3cc(C4CC4)on3)CC2)CC1 [compound 10, 5-cyclopropyl-N-((1r,4r)-4-(3-(4-methylpiperazin-1-yl)propanamido)cyclohexyl)isoxazole-3-carboxamide] | 7720
CNCCC(=O)N[C@H]1CC[C@H](NC(=O)c2cc(C3CC3)on2)CC1 [compound 12, 5-cyclopropyl-N-((1r,4r)-4-(3-(methylamino)propanamido)cyclohexyl) isoxazole-3-carboxamide] | 867
N[C@H]1CC[C@@H](C(=O)N[C@H]2CC[C@H](NC(=O)c3cc(C4CC4)on3)CC2)CC1 [compound 13, N-((1R,4r)-4-((1s,4S)-4-aminocyclohexane-1-carboxamido)cyclohexyl)-5-cyclopropylisoxazole-3-carboxamide] | 352
N[C@H]1C[C@@H](C(=O)N[C@H]2CC[C@H](NC(=O)c3cc(C4CC4)on3)CC2)C1 [compound 14, N-((1R,4r)-4-((1s,3S)-3-aminocyclobutane-1-carboxamido)cyclohexyl)-5-cyclopropylisoxazole-3-carboxamide] | 1180
O=C(CCN1CCOCC1)N[C@H]1CC[C@H](NC(=O)c2cc(C3CC3)on2)CC1 [compound 15, 5-cyclopropyl-N-((1r,4r)-4-(3-morpholino-propanamido)cyclohexyl) isoxazole-3-carboxamide] | 20400
N[C@H]1CC[C@H](C(=O)N[C@H]2CC[C@H](NC(=O)c3cc(C4CC4)on3)CC2)CC1 [compound 16, N-((1R,4r)-4-((1r,4R)-4-aminocyclohexane-1-carboxamido)cyclohexyl)-5-cyclopropylisoxazole-3-carboxamide] | 606
O=C(CCN1CCNCC1)N[C@H]1CC[C@H](NC(=O)c2cc(C3CC3)on2)CC1 [compound 17, 5-cyclopropyl-N-((1r,4r)-4-(3-(piperazin-1-yl)propanamido)cyclohexyl)isoxazole-3-carboxamide] | 1150
O=C(CCNCc1ccccc1)N[C@H]1CC[C@H](NC(=O)c2cc(C3CC3)on2)CC1 [compound 18, N-((1r,4r)-4-(3-(benzylamino)propanamido)cyclohexyl)-5-cyclopropylisoxazole-3-carboxamide] | 671
CC(C)CNCCC(=O)N[C@H]1CC[C@H](NC(=O)c2cc(C3CC3)on2)CC1 [compound 19, 5-cyclopropyl-N-((1r,4r)-4-(3-(isobutylamino)propanamido)cyclohexyl)isoxazole-3-carboxamide] | 919
N[C@@H]1CC[C@H](C(=O)N[C@H]2CC[C@H](NC(=O)c3cc(C4CC4)on3)CC2)C1 [compound 21, N-((1S,4r)-4-((1S,3R)-3-aminocyclopentane-1-carboxamido)cyclohexyl)-5-cyclopropylisoxazole-3-carboxamide] | 511
N[C@H]1C[C@H](C(=O)N[C@H]2CC[C@H](NC(=O)c3cc(C4CC4)on3)CC2)C1 [compound 22, N-((1R,4r)-4-((1r,3R)-3-aminocyclobutane-1-carboxamido)cyclohexyl)-5-cyclopropylisoxazole-3-carboxamide] | 269
NCCCN[C@H]1CC[C@H](NC(=O)c2cc(C3CC3)on2)CC1 [compound 23, N-((1r,4r)-4-((3-aminopropyl)amino)cyclohexyl)-5-cyclopropylisoxazole-3-carboxamide] | 342
CC(C)CCN[C@H]1CC[C@H](NC(=O)c2cc(C3CC3)on2)CC1 [compound 25, 5-cyclopropyl-N-((1r,4r)-4-(isopentylamino)cyclohexyl)isoxazole-3-carboxamide] | 8230
NCC(O)C(=O)N[C@H]1CC[C@H](NC(=O)c2cc(C3CC3)on2)CC1 (stereo partly shown) [compound 27, N-((1r,4r)-4-(3-amino-2-hydroxypropanamido)cyclohexyl)-5-cyclopropylisoxazole-3-carboxamide] | 567
NCCN[C@H]1CC[C@H](NC(=O)c2cc(C3CC3)on2)CC1 [compound 28, N-((1r,4r)-4-((2-aminoethyl)amino)cyclohexyl)-5-cyclopropylisoxazole-3-carboxamide] | 853
NCCS(=O)(=O)N[C@H]1CC[C@H](NC(=O)c2cc(C3CC3)on2)CC1 [compound 29, N-((1r,4r)-4-((2-aminoethyl)sulfonamido)cyclohexyl)-5-cyclopropylisoxazole-3-carboxamide] | 2900
NCCC(=O)N(CCN)[C@H]1CC[C@H](NC(=O)c2cc(C3CC3)on2)CC1 [compound 35, N-((1r,4r)-4-(3-amino-N-(2-aminoethyl)propanamido)cyclohexyl)-5-cyclopropylisoxazole-3-carboxamide] | 883
NCCCN(C(=O)CCO)[C@H]1CC[C@H](NC(=O)c2cc(C3CC3)on2)CC1 [compound 36, N-((1r,4r)-4-(N-(3-aminopropyl)-3-hydroxypropanamido)cyclohexyl)-5-cyclopropylisoxazole-3-carboxamide] | 7030
CCS(=O)(=O)N[C@H]1CC[C@H](NC(=O)c2cc(C3CC3)on2)CC1 [compound 37, 5-cyclopropyl-N-((1r,4r)-4-(ethylsulfonamido)cyclohexyl)isoxazole-3-carboxamide] | 6360
NCCC(=O)N(CCCO)[C@H]1CC[C@H](NC(=O)c2cc(C3CC3)on2)CC1 [compound 38, N-((1r,4r)-4-(3-amino-N-(3-hydroxypropyl)propanamido)cyclohexyl)-5-cyclopropylisoxazole-3-carboxamide] | 1200

Source: patent US10106510B2, “Substituted isoxazoles for treating cancer” (EPIZYME, INC., priority 2014, dated 2018)
